Source: patent US20130225611A1, “Compositions and Methods for Reducing Cancer Cell Proliferation and Modulating Importin-Beta Function” (THE REGENTS OF THE UNIVERSITY OF CALIFORNIA, priority 2011, published 2013)

How the values were obtained:
transportin = biological target: T1, transportin (Homo sapiens, UniProt Q92973); test: fluorescent thermal shift assay (Sypro Orange), transportin; format: binding; details: 2 μM protein, 50 μM importazole
T1 construct: made in house; host or cells: SG13 cells (E. coli)
T1 sequence (Q92973 1-898): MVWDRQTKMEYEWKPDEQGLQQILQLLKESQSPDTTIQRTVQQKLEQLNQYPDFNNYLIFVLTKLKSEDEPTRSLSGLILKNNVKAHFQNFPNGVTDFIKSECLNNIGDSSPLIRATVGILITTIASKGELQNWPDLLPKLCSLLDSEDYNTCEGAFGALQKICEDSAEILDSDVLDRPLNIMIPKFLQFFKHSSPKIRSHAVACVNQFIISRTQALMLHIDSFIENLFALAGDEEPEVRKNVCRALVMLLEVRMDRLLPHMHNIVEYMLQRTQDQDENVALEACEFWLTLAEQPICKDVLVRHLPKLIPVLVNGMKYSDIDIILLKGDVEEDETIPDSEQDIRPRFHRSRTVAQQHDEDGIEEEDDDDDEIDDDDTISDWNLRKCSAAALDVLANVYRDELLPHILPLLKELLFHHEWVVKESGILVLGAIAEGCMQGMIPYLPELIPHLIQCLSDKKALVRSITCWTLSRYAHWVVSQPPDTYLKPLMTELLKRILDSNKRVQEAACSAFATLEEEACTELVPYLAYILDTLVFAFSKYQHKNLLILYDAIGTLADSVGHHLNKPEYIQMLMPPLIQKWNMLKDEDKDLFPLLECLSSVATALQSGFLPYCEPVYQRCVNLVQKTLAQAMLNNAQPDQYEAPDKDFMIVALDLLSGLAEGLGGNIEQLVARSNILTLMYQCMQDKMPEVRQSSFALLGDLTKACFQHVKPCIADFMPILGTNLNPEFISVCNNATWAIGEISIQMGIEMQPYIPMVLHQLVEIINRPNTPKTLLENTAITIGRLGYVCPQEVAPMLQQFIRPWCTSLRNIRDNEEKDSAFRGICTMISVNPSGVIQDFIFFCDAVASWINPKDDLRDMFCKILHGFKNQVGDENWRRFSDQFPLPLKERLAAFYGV
Experimental: Experiments were performed using Applied Biosystems StepOnePlus™ Real-Time polymerase chain reaction (RT-PCR) System. Protein stocks were diluted in PBS and added 70% v/v to a Microamp® Fast 96-well Reaction Plate and maintained on ice. Compounds (importazole and control compound 3016) were then added at 30% v/v in 3% DMSO. Freshly prepared 100× water based-dilution of Sypro® Orange Protein Gel Stain was then added at 1% v/v to reach a final reaction volume of 20 μl. Samples were mixed by gentle pipetting. After sealing the plates with Microamp™ Optical Adhesive Film, the plate was subjected to a heating cycle composed of a 10 sec prewarming step at 25° C. and a gradient between 25° C. and 95° C. with a 0.3° C. ramp. Data was analyzed using the StepOnePlus™ Software v2.1.

[1] = tested on: spindle assembly around sperm chromosomes; test: spindle assembly in metaphase-arrested Xenopus egg extracts; design: species or system Xenopus laevis; details: 100 μM importazole
From the text: In order to determine whether importazole also disrupts mitosis, importazole was first tested in metaphase-arrested Xenopus egg extracts, which rely heavily on a RanGTP gradient for spindle assembly around sperm chromosomes. […] The effect was similar to that of adding a truncated importin-β (amino acids 71-876), a version that no longer binds to RanGTP and therefore sequesters its cargoes. […] Thus, importazole caused dramatic effects on spindle assembly consistent with the known role of the importin-β/RanGTP pathway in the Xenopus egg extract system, and is not a general microtubule inhibitor.
Xenopus laevis egg extracts were prepared as described by Hannak et al. (2006) Nat. Protoc. 1:2305-2314. For in vitro spindle assembly, Xenopus laevis sperm DNA was added to egg extracts supplemented with rhodamine-labeled tubulin. Asters were formed by addition of 5% DMSO. DNA was stained with Hoechst dye. The formation of microtubule-based structures was assessed using epifluorescence microscopy after a 30-minute room temperature incubation. In vitro microtubule polymerization and pelleting assays were performed by incubating 25 μM bovine tubulin, 1 mM GTP, and 5% DMSO in BRB80 buffer (80 mM PIPES, 1 mM MgCl2, 1 mM EGTA, pH 6.8) at 37° C. for 30 minutes. Polymerized microtubules were pelleted through a sucrose cushion, resuspended, and analyzed by SDS PAGE.

## CC(Nc1nc(N2CCCC2)nc2ccccc12)c1ccccc1 (centres unmarked) [importazole, (1-phenyl-ethyl)-(2-pyrrolidin-1-yl-quinazolin-4-yl)-amine]
transportin
  effect on melting curve of transportin: did not significantly affect the melting curves
[1]
  sperm nuclei at which normal bipolar microtubule structures were prevented from forming: 80%
